Results published in US8008487B2, “Substituted thieno[2,3-D]pyrimidines as fungicides” (priority 2004, dated 2011).

Tests used:
Assay type in all cases: in vivo
Leptosphaeria nodorum = test: Glume Blotch of Wheat (LEPTNO), whole-plant fungicide test; settings: Parastagonospora nodorum, foliar, 24 h, 200 ppm on foliage, one-day protectant test, read-out: LEPTNO percent control of disease
[1] = test system: Erysiphe graminis f. sp. tritici; test: Powdery Mildew of Wheat (ERYSGT), whole-plant fungicide test; settings: Blumeria graminis, foliar, 24 h, 200 ppm on foliage, one-day protectant test, read-out: ERYSGT percent control of disease
Colletotricum lagenarium = test: Cucumber Anthracnose (COLLLA), whole-plant fungicide test; settings: Cucumis sativus, foliar, 24 h, 200 ppm on foliage, one-day protectant test, read-out: COLLLA percent control of disease
Septoria tritici = test: Speckled Leaf Blotch of Wheat (SEPTTR), whole-plant fungicide test; settings: Zymoseptoria tritici, foliar, 24 h, 200 ppm on foliage, one-day protectant test, read-out: SEPTTR percent control of disease
Erysiphe cichoracaerum = test: Cucumber Powdery Mildew (ERYSCI), whole-plant fungicide test; settings: Erysiphe, foliar, 24 h, 200 ppm on foliage, one-day protectant test, read-out: ERYSCI percent control of disease
[2] = test system: Puccinia recondita tritici; test: Leaf Rust of Wheat (PUCCRT), whole-plant fungicide test; settings: Puccinia recondita, foliar, 24 h, 200 ppm on foliage, one-day protectant test, read-out: PUCCRT percent control of disease
Magnaporthe grisea = test: whole plant or invertebrate; settings: Pyricularia oryzae, in Oryza sativa, foliar, 24 h, read-out: PYRIOR percent control of disease, 200 ppm on foliage, rice, one-day protectant test
Phytophthora infestans = test: whole plant or invertebrate; settings: Phytophthora infestans, in Solanum lycopersicum, foliar, 24 h, read-out: PHYTIN percent control of disease, 200 ppm on foliage, tomato, one-day protectant test
Cochliobolus sativus = test: Spot Blotch of Wheat (COCHSA), whole-plant fungicide test; settings: Bipolaris sorokiniana, foliar, 24 h, 200 ppm on foliage, one-day protectant test, read-out: COCHSA percent control of disease
Protocol: The activity of the compounds as effective fungicides was determined by applying the compounds to plants and observing control of fungal disease. The compounds were formulated at 200 ppm in 10 vol. percent acetone plus 90 vol. percent Triton X water (deionized water 99.99 wt. percent+0.01 wt. percent Triton X100), giving a “formulated test compound.” In a few cases, compounds were formulated at 100, 75 or 8.3 ppm rather than 200 ppm in 10 vol. percent acetone plus 90 vol. percent Triton X water (deionized water 99.99 wt. percent+0.01 wt. percent Triton X100), giving a ‘formulated test compound’. The compounds were tested for ability to control plant diseases in a 1-day protectant test (1DP) or a 2-day curative test (2DC). Formulated test compounds were applied to plants using a turn table sprayer fitted with two opposing air atomization nozzles which delivered approximately 1500 L/ha of spray volume. Plants were inoculated with spores of the fungus the next day (1DP), then incubated in an environment conducive to disease development. In a few cases, the compounds were tested for ability to control plant disease in a two-day curative test. Plants were inoculated with spores of the fungus two days prior to compound application, and incubated in an environment conducive to disease development both before and after compound application (2DC). For all types of tests, disease severity was evaluated 4 to 28 days later, depending on the speed of disease development.
Each pot contained 3-8 seedlings. These plants were sprayed until wet with the formulated test compound. On the following day, the leaves were inoculated with an aqueous spore suspension of Cochliobolus sativus and the plants were kept in high humidity for one to two days to permit spores to germinate and infect the leaf. The plants were then transferred to a greenhouse until disease developed on untreated control plants.
The following table presents the activity of typical compounds of the present invention when evaluated in these experiments. The effectiveness of the test compounds in controlling disease was determined by assessing the severity of disease on treated plants, then converting the severity to percent control based on the level of disease on untreated, inoculated plants.
TABLE 4: Activity of compounds as fungicides. Data are the level at which the given disease was controlled when the given compound was applied to the foliage of the plant at 200 ppm. In a few cases (noted in the table) the compound was applied to the plant at 100, 75 or 8.3 ppm. The plant was inoculated with the fungus one day after treatment. In a few cases (noted in the table) the plant was inoculated with the fungus two days before treatment.

SMILES | pest or weed control at 200 ppm (Leptosphaeria nodorum) | pest or weed control at 200 ppm [1] | pest or weed control at 200 ppm (Colletotricum lagenarium) | pest or weed control at 200 ppm (Septoria tritici) | pest or weed control at 200 ppm (Erysiphe cichoracaerum) | pest or weed control at 200 ppm [2] | pest or weed control at 200 ppm (Magnaporthe grisea) | pest or weed control at 200 ppm (Phytophthora infestans) | pest or weed control at 200 ppm (Cochliobolus sativus)
CC(Nc1ncnc2scc(Cl)c12)c1ccc(OCc2ccc(OC(F)(F)F)cc2)cc1 (stereo not drawn) [Compound 5] | 50 to 79% | 50 to 79% | 0 to 49% | 80 to 100% | 80 to 100% | 80 to 100% | 50 to 79% |  | 
FC(F)(F)Oc1ccc(COc2ccc(CCNc3ncnc4scc(Cl)c34)cc2)cc1 [Compound 6] | 50 to 79% | 0 to 49% |  | 50 to 79% | 80 to 100% | 80 to 100% | 50 to 79% |  | 
Clc1csc2ncnc(NC3CCc4ccccc43)c12 (stereo not drawn) [Compound 8] | 0 to 49% | 0 to 49% | 0 to 49% | 0 to 49% | 0 to 49% | 50 to 79% | 50 to 79% | 0 to 49% | 
Clc1csc2ncnc(NC3CCCc4ccccc43)c12 (stereo not drawn) [Compound 10] | 0 to 49% | 0 to 49% | 0 to 49% | 0 to 49% | 0 to 49% | 0 to 49% | 50 to 79% | 0 to 49% | 
CCOC(=O)c1sc2ncnc(NC(C)c3ccc(OC)cc3)c2c1OC (stereo not drawn) [Compound 51, 5-Methoxy-4-[1-(4-methoxyphenyl)ethylamino]thieno[2,3-d]pyrimidine-6-carboxylic Acid Ethyl Ester] | 0 to 49% |  |  | 0 to 49% |  | 0 to 49% |  |  | 0 to 49%
COc1ccc(OCC(C)Nc2ncnc3scc(Cl)c23)cn1 (stereo not drawn) [Compound 53] | 0 to 49% |  | 0 to 49% | 50 to 79% |  | 80 to 100% | 50 to 79% | 0 to 49% | 50 to 79%
CC(Nc1ncnc2scc(Cl)c12)c1cnc(OCC(F)(F)F)nc1 (stereo not drawn) [Compound 54] | 50 to 79% |  | 0 to 49% | 50 to 79% |  | 80 to 100% | 80 to 100% | 80 to 100% | 0 to 49%
COc1ncc(C(C)Nc2ncnc3scc(Cl)c23)cn1 (stereo not drawn) [Compound 55] | 50 to 79% |  | 0 to 49% | 80 to 100% |  | 80 to 100% | 50 to 79% | 80 to 100% | 0 to 49%
Clc1csc2ncnc(N3CCCC3c3cccnc3)c12 (stereo not drawn) [Compound 56] | 0 to 49% |  | 0 to 49% |  | 0 to 49% | 50 to 79% | 0 to 49% | 0 to 49% | 0 to 49%
CC(COc1cccc(Cl)n1)Nc1ncnc2scc(Cl)c12 (stereo not drawn) [Compound 57] | 0 to 49% |  | 0 to 49% | 80 to 100% | 50 to 79% | 80 to 100% | 80 to 100% | 0 to 49% | 0 to 49%
